Data published in patent US7250157B2, “Dermatological compositions and methods” (Applied Genetics Incorporated Dermatics, priority 1996, dated 2007).
Where “and” joins values, the source holds several entries; their conditions need not be identical. Identical values can stand only once.

Legend:
[1] = tested on: Tyrosinase in normal human epidermal melanocytes (NHEM); assay: Tyrosinase in NHEM (in situ, cellular, extracellular particulate, media); assay type: cell-based; settings: for Tyrosinase 200 g Partic, relative to controls (in parentheses) / Tyrosinase 17300 g Partic, relative to controls (in parentheses) / Tyrosinase Cellular, relative to controls (in parentheses) / Tyrosinase In Situ, relative to controls (in parentheses) / Tyrosinase Media, relative to controls (in parentheses): pair of replicates
Description: Tyrosinase was measured in normal human epidermal melanocytes (NHEM) using procedures identical to those described for S91 cells (Example 6), […], 1600×g, or 17,300×g for analysis of tyrosinase activity in the extracellular exported melanosomal particulate fraction, and in the resultant supernatant media fraction. In some cases (Table 11), tyrosinase was also measured by an in situ assay wherein radiolabelled tyrosine was added directly to freshly replaced media of NHEM for a period of 24 hrs following a 5 day treatment period (Abdel-Malek, et al., 1992, J. Cell. Physiol. 150:416-425). […] Both 5 mM 5-NBene-2,2-DM and 25 mM 3,3-M-1,2-BD induced more tyrosinase in each of these assays and fractions than did 1,2-PG. IBMX (3-isobutyl-1-methyl-xanthine) provided as a positive control, induced as much tyrosinase as 5 mM 5-NBene-2,2-DM in the in situ assay, but less in cellular, extracellular particulate and media fractions (Table 11).

[2] = tested on: American short-haired guinea pigs; assay: Topical melanogenesis (pigmentation rating) in guinea pigs; assay type: in vivo, guinea pig; design: Pigmentation Rating / Pigmentation Rating Background Corrected: scale not given here; settings: for relative melanogenesis rating (mean ±SE), scale 0-4: 25 μl twice per day for 5 days, rated two weeks after
Method in brief: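 Agents applied topically to depilated back sites of American short-haired guinea pigs; PG, 2,3-BD and 1,2-cis-CPD at full strength, 3,3-M-1,2-BD at 4M in ethanol. Pigmentation subjectively rated two weeks after cessation of treatment, corrected for control-spot background, normalized to 1M and to 1,2-PG.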

[3] = tested on: tyrosinase activity in S91 mouse melanoma cells; assay: Induction of tyrosinase activity in S91 cells; settings: for Tyrosinase dpm/hr 10^3 Cells / Tyrosinase dpm/hr ug Protein: 300 mM PG-1,2, 25 mM 3,3-M-1,2-BD, 50 mM 1,2-cs-CPD, 0.5 mM 2,3-Pyd, 0.1 mM IBMX, mean ±SE
Description: Compounds were examined for their ability to induce tyrosinase activity in S91 mouse melanoma cells. […] Following treatments, cells were trypsinized, counted by Coulter, pelleted by centrifugation at 1000×g, and analyzed for tyrosinase activity using modifications of previously described procedures (Pomerantz, S. H., 1966, J. Biol. Chem. 241:161-168; Jara, et al., 1988, Pigment Cell Res. 1: 332-339.). Briefly, cell pellets were solubilized by sonicating for 5 seconds in 600 ul 50 mM phosphate buffer pH 6.8 containing 0.5% Triton-X100, followed by vortexing, incubation on ice for 30 min, and then revortexing. From this, 200 ul aliquots were combined with 200 ul of reaction mixture containing either 75 uM tyrosine, 75 uM L-Dopa, and 2 uCi L-[3,5-^3H]Tyrosine in 50 mM NaPO4 pH 6.8 (L-Dopa+), or, 75 uM tyrosine, and 2 uCi L-[3,5-^3H]Tyrosine in 50 mM NaPO4 pH 6.8 (L-Dopa−) and incubated 1 hr at 37° C. Reactions were stopped by addition of 400 ul 10% activated charcoal in 0.1N HCl and incubation on ice for 15 min. This mixture was centrifuged at 17,300×g for 5 min, and 400 ul supernatant was then filtered through a 0.22 uM GV Durapore centifugal filter unit (Millipore) by centrifuging at 17,300×g for 5 min. Filtrate was added to 4 ml Fisher Plus scintillation fluid and counted on a Hewlett Packard scintillation counter. Tyrosinase activity was calculated as dpm/hr/ug protein and dpm/hr/10^3 cells. Each sample was analyzed with and without L-Dopa, a necessary cofactor for tyrosinase (Pomerantz, S. H., 1966, J. Biol. Chem. 241:161-168; McLane, et al., 1987, Biochem. Biophys. Res. Commun. 145:719-725). All reported tyrosinase values are exclusive of counts that occurred in buffer blanks and L-dopa negative aliquots. Protein was determined on aliquots of cell lysate, extracellular particulate lysate or media by the Bradford Coomassie Blue method (Bradford, 1967, Anal. Biochem. 72:248-254) using Bio-Rad Protein Assay Kit I.

[4] = tested on: Cloudman S91 mouse melanoma cell line; assay: Melanin content of S91 cells after treatment with test compound; assay type: cell-based
Method in brief: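 Mouse S91 melanoma cells seeded at 10^5 cells/35 mm dish in 10% calf serum and cultured with test compound 6 days at 37 °C, 5% CO2. Differentiation scored microscopically, trypsin detachment time recorded, cells counted; melanin measured by absorbance at 475 nm and expressed as pg melanin/cell.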

[5] = 5 day treatment, 300 mM 1,2-PG, 25 mM 3,3-M-1,2-BD, 5 mM 5-NBene-2,2-DM, 0.1 mM IBMX
[6] = No Penetration Enhancer, concentrations as E85
[7] = 5 day treatment, concentrations as E130
[8] = Experiment 1, 5 mM 5-NBene-2,2-DM
[9] = Experiment 2, 5 mM 5-NBene-2,2-DM
[10] = Experiment 3, 5 mM 5-NBene-2,2-DM

## CC(O)CO (stereo not drawn) [1,2-propanediol, 1,2-Propanediol (Propylene Glycol)]
[1]; [5]
  Tyrosinase In Situ: 17.2 dpm/hr/10^3 Cells and 16.8 dpm/hr/10^3 Cells
[1]; 5 day treatment, concentrations as E130, listed as 1,2-PG
  Tyrosinase Cellular: 10875 dpm/hr/10^3 Cells and 10247 dpm/hr/10^3 Cells
[1]; Post 17300 X g, 5 day treatment, concentrations as E130, listed as 1,2-PG
  Tyrosinase Media: 2123 dpm/hr/10^3 Cells and 1864 dpm/hr/10^3 Cells
[1]; concentrations as E130
  Tyrosinase 200 g Partic, relative to controls (in parentheses): (1.98X)
  Tyrosinase 17300 g Partic, relative to controls (in parentheses): (1.50X)
  Tyrosinase Cellular, relative to controls (in parentheses): (1.03) X
  Tyrosinase In Situ, relative to controls (in parentheses): (1.07X)
  Tyrosinase Media, relative to controls (in parentheses): (1.28X)
[2]; [6]
  Pigmentation Rating Normalized to 1,2-PG: 1.0 ± 0.1
  Pigmentation Rating Normalized to 1M: 0.015 ± 0.002
[2]; No Penetration Enhancer, corrected for Nair control, concentrations as E85
  Pigmentation Rating Background Corrected: 0.21 ± 0.03
[2]; No Penetration Enhancer, sites c and d, 13.61M 1,2-PG, 11.0M 2,3-M-2,3-BD, 11.3M 2-M-1,3-PG, 8.7M 1,2-cs-CPD, 4.0M 3,3-M-1,2-BD
  Pigmentation Rating: 0.29 ± 0.09
[2]; same relative body position
  melanogenesis in guinea pigs (in words): significant melanogenesis relative to depilitory treated controls
[2]; site a (head), PG 13.6M, 2,3-BD 10.95M, 1,2-cs-CPD 10.7M full strength, 3,3-M-1,2-BD 4M in ethanol
  relative melanogenesis rating (mean ±SE), scale 0-4: 1.04 ± 0.21
[2]; site b, full strength solutions, listed as PG
  relative melanogenesis rating (mean ±SE), scale 0-4: 0.50 ± 0.25 and 0.83 ± 0.17
[2]; site c, full strength, 3,3-M-1,2-BD 4M in ethanol
  relative melanogenesis rating (mean ±SE), scale 0-4: 0.25 ± 0.09^1
[2]; site d (tail), full strength solutions
  relative melanogenesis rating (mean ±SE), scale 0-4: 0.33 ± 0.16^1
[2]; sites towards tail, 13.61M 1,2-PG, 10.6M 1,2-PG/2% 2P, 11M 2,3-dimethyl-2,3-butanediol
  pigmentation response versus control (Nair or 2% 2P treated) spots: not significantly different from control
[3]; 5 mM 5-NBene-2,2-DM
  Tyrosinase dpm/hr 10^3 Cells: 292 ± 104 dpm/hr/10^3 Cells
  Tyrosinase dpm/hr ug Protein: 1003 ± 370 dpm/hr/ug Protein
[4]
  Concentration Required for ≧2-fold Melanin Induction in S91 Cells: 150 mM
[4]; 50 mM
  pg Melanin/Cell: 15.6 pg Melanin/Cell
  ug Melanin: 1.31 µg
[4]; 150 mM
  pg Melanin/Cell: 24.0 pg Melanin/Cell
  ug Melanin: 1.73 µg
[4]; 1% (136 mM), 6 days
  pg Melanin/Cell: 9.4 pg Melanin/Cell
  ug Melanin: 4.88 µg
[4]; 2% (272 mM), 6 days
  pg Melanin/Cell: 12.5 pg Melanin/Cell
  ug Melanin: 6.24 µg
[4]; 3% (408 mM), 6 days
  pg Melanin/Cell: 20.2 pg Melanin/Cell
  ug Melanin: 4.03 µg
[4]; 4% (544 mM), 6 days
  pg Melanin/Cell: 40.1 pg Melanin/Cell
  ug Melanin: 4.01 µg
[4]; 5% (680 mM), 6 days
  pg Melanin/Cell: 28.9 pg Melanin/Cell
  ug Melanin: 2.31 µg

## OCC1(CO)CC2C=CC1C2 (stereo not drawn) [5-NBene-2,2-DM, 5-norbornene-2,2-dimethanol]
[1]; [5]
  Tyrosinase In Situ: 24.5 dpm/hr/10^3 Cells and 25.4 dpm/hr/10^3 Cells
[1]; [7]
  Tyrosinase 200 g Partic: 6447 dpm/hr/10^3 Cells and 6291 dpm/hr/10^3 Cells
  Tyrosinase Cellular: 13838 dpm/hr/10^3 Cells and 14716 dpm/hr/10^3 Cells
[1]; Black-Neonatal-NHEM, 1 mM
  Tyrosinase Cellular: 10679 dpm/hr/10^3 cells
  Tyrosinase Cellular relative to Control: 1.08 X
  Tyrosinase In Situ: 13.9 dpm/hr/10^3 cells
  Tyrosinase In Situ relative to Control: 1.11 X
  Tyrosinase Media relative to Control: 2.41 X
[1]; Black-Neonatal-NHEM, 1 mM, media from 1 day treatment period
  Tyrosinase Media: 26.8 dpm/hr/10^3 cells
[1]; Black-Neonatal-NHEM, 5 mM
  Tyrosinase Cellular: 15398 dpm/hr/10^3 cells
  Tyrosinase Cellular relative to Control: 1.56 X
  Tyrosinase In Situ: 14.1 dpm/hr/10^3 cells
  Tyrosinase In Situ relative to Control: 1.13 X
  Tyrosinase Media relative to Control: 2.99 X
[1]; Black-Neonatal-NHEM, 5 mM, media from 1 day treatment period
  Tyrosinase Media: 33.2 dpm/hr/10^3 cells
[1]; Post 200 X g, 5 day treatment, concentrations as E130
  Tyrosinase 17300 g Partic: 493 dpm/hr/10^3 Cells and 473 dpm/hr/10^3 Cells
[1]; Post 17300 X g, 5 day treatment, concentrations as E130
  Tyrosinase Media: 4164 dpm/hr/10^3 Cells and 4639 dpm/hr/10^3 Cells
[1]; White-Adult-NHEM, 1 mM
  Tyrosinase Cellular: 12740 dpm/hr/10^3 cells
  Tyrosinase Cellular relative to Control: 0.91 X
  Tyrosinase In Situ: 6.27 dpm/hr/10^3 cells
  Tyrosinase In Situ relative to Control: 1.13 X
  Tyrosinase Media relative to Control: 0.82 X
[1]; White-Adult-NHEM, 1 mM, media from 1 day treatment period
  Tyrosinase Media: 29.9 dpm/hr/10^3 cells
[1]; White-Adult-NHEM, 5 mM
  Tyrosinase Cellular: 18467 dpm/hr/10^3 cells
  Tyrosinase Cellular relative to Control: 1.32 X
  Tyrosinase In Situ: 5.81 dpm/hr/10^3 cells
  Tyrosinase In Situ relative to Control: 1.04 X
  Tyrosinase Media relative to Control: 1.46 X
[1]; White-Adult-NHEM, 5 mM, media from 1 day treatment period
  Tyrosinase Media: 53.1 dpm/hr/10^3 cells
[1]; concentrations as E130
  Tyrosinase 200 g Partic, relative to controls (in parentheses): (18.6X)
  Tyrosinase 17300 g Partic, relative to controls (in parentheses): (4.22X)
  Tyrosinase Cellular, relative to controls (in parentheses): (1.40X)
  Tyrosinase In Situ, relative to controls (in parentheses): (1.57X)
  Tyrosinase Media, relative to controls (in parentheses): (2.83X)
[2]; spot a (anterior), 8.7M 1,2-cis-CPD in 20% ETOH, 1M 5-NBene-2,2-DM in 8.5 M propylene glycol, 2% 2-pyrrolidone, 20% ETOH, 1M 2,3-cs/ex PD in 50% ETOH
  Pigmentation Ratings (X ± SE; n = 6; scale 0 to +4): 1.75 ± 0.43
[2]; spot b, formulations as E220
  Pigmentation Ratings (X ± SE; n = 6; scale 0 to +4): 1.25 ± 0.21
[2]; spot c, formulations as E220
  Pigmentation Ratings (X ± SE; n = 6; scale 0 to +4): 0.83 ± 0.15
[2]; spot d (posterior), formulations as E220
  Pigmentation Ratings (X ± SE; n = 6; scale 0 to +4): 0.29 ± 0.08
[3]; 0.5 mM (Table 16)
  Fold Induction of Tyrosinase Relative to Controls: 2.8X
[3]; 1 mM (Table 15)
  Fold Induction of Tyrosinase Relative to Controls: 4.0X
[3]; 1 mM (Table 16)
  Fold Induction of Tyrosinase Relative to Controls: 3.6X
[3]; 2 mM (Table 15)
  Fold Induction of Tyrosinase Relative to Controls: 12.9X
[3]; 2.5 mM (Table 16)
  Fold Induction of Tyrosinase Relative to Controls: 14.5X
[3]; 5 mM 5-NBene-2,2-DM
  Tyrosinase Relative to Control: 8.2X
  Tyrosinase dpm/hr/ug Protein: 3273 dpm/hr/ug Protein
  Tyrosinase dpm/hr 10^3 Cells: 707 ± 54 dpm/hr/10^3 Cells
  Tyrosinase dpm/hr ug Protein: 1643 ± 105 dpm/hr/ug Protein
[3]; 5 mM 5-NBene-2,2-DM, average of two
  Tyrosinase dpm/hr/10^3 Cells, Avg.: 4381 dpm/hr/10^3 Cells
[3]; 5 mM 5-NBene-2,2-DM, single replicates
  Tyrosinase dpm/hr/10^3 Cells: 4515 dpm/hr/10^3 Cells and 4247 dpm/hr/10^3 Cells
[3]; 5 mM (Table 15)
  Fold Induction of Tyrosinase Relative to Controls: 41.9X
[3]; 5 mM (Table 16)
  Fold Induction of Tyrosinase Relative to Controls: 61.6X
[3]; [8]
  % of 5-NBene-2,2-DM: 100%
  Tyrosinase induction dpm/hr/10^3 cells: 5018 ± 415^1 dpm/hr/10^3 cells
[3]; [9]
  % of 5-NBene-2,2-DM: 100%
  Tyrosinase induction dpm/hr/10^3 cells: 5640 ± 323 dpm/hr/10^3 cells
[3]; [10]
  % of 5-NBene-2,2-DM: 100%
  Tyrosinase induction dpm/hr/10^3 cells: 6388 ± 460^1 dpm/hr/10^3 cells
[4]
  Concentration Required for ≧2-fold Melanin Induction in S91 Cells: 5 mM
